Patent US10251865B2, “Method of activating regulatory T cells with alpha-2B adrenergic receptor agonists” (Allergan, Inc., priority 2010, dated 2019)

Columns and labels:
[1] = tested on: tear TNF-alpha and IL17; assay: Dry eye desiccating stress in mice, adoptive transfer of CD4+ T cells, recipient tear cytokines; type: in vivo; details: donor mice treated 3 mg/kg/day for 10 days during desiccating stress; CD4+ T cells transferred to nude mice, FIG. 11
Excerpt: C57BL/6 (C57BL/6NTac) and B6.Cg/NTac-Foxn1nuNE9 were purchased from Taconic, Inc. (Germantown, N.Y.). Mice were used at 6-10 weeks of age. Animal studies approval was obtained from the Allergan Animal Care and Use Committee. All studies adhered to the Association for Research in Vision and Ophthalmology statement for the Use of Animals in Ophthalmic and Vision Research. As described in the literature dry eye was induced by treating mice with subcutaneous injections of scopolamine hydrobromide (0.5 mg/0.2 ml; Sigma-Aldrich, St. Louis, Mo.) three times a day alternating between the left and right flanks (Neiderkorn et al, 2006). […] Histological analysis was done by staining […] samples with antibody to CD4 and H&E staining to quantify goblet cells and T cells in the conjunctiva. […]
The levels of cytokines were measured with a sensitive, fluorescent multiplex immunobead assay (Luminex; Biosource-Invitrogen, Carlsbad, Calif.). […] Cytokine levels in samples were analyzed by using the corresponding Millipore cytokine Beadmate pairs. […] Beads were washed, resuspended in 125 μl of Beadlyte buffer, and analyzed by Luminex 100 instrument (Luminex Corporation, Austin, Tex.). The mean fluorescence intensities obtained from 50 beads per cytokine minimum were analyzed using Upstate Beadview software. […]

[2] = tested on: SNL Rat Model of Allodynic Neuropathic Pain; assay: Allodynia reversal (Von Frey) in the SNL Rat Model of Allodynic Neuropathic Pain; type: in vivo; details: for % Allodynia Reversal 24 hr post / % Allodynia Reversal 7 day post / % Allodynia Reversal 23 day post: SNL rats; for blockade of the (long-term) analgesic effect by the immunosuppressant FK506: spinal nerve ligation model, result in words
Experimental: The SNL (or Chung) Model in the rat is an accepted standard animal model of neuropathic pain and is thought to mimic the human causalgia condition with respect to symptoms (guarding behavior, mechanical allodynia) and alleviation by pharmacological agents. […] The SNL Model is performed by tightly ligating the L-5 and L-6 spinal nerves, which produces tactile allodynia or sensitivity to light touch as described (Kim and Chung, 1992). Male sprague-dawley rats (100-120 grams; Charles River, Wilmington, Mass.) were anesthetized through inhalation of an isoflurane/oxygen mix. The surgical site was shaved and prepared with betadine. An incision was made from the thoracic vertebra XIII toward down the sacrum. The muscle was separated from the spinal vertebra (left side) at the L4-S2 levels. The L6 vertebra was located and then the transverse process was carefully removed with a small rongeur to visually identify the L4-L6 spinal nerves. The L5 and L6 spinal nerves was isolated and tightly ligated with 6-0 silk thread. A complete homeostasis was confirmed and then the wound was sutured. The duration of the surgery was approximately 20 minutes. A small amount of antibiotic ointment was applied to the incised area and the animals were transferred to a plastic recovery cage under a regulated heat-temperature lamp. Animals were not given any topical or local anesthetics post-operatively because they will inhibit the development of the pain syndrome, which is the phenomenon to be studied.
The allodynia is quantitated in the animals having received the Chung surgery by stimulation with a series of 8 Von Frey hairs on the mid planter area of the surgical hind paw in the up-down manner as described in the literature (Dixon, 1980). Von Frey hairs are applied in an up-down manner depending on the response until the 50% threshold is established. The Von Frey hairs are applied to the plantar surface of the surgical paw with just enough force to bend them. A positive response is recorded if the paw is sharply withdrawn. Eight Von Frey hairs were used 3.61, 3.84, 4.08, 4.31, 4.56, 4.74, 4.93 and 5.18 yielding a gram force of 0.25-15 grams.
[formula] • Mean±SEM: • Mean=average of allodynia reversals • SEM=STDEV/SQ ROOT of n
Testing with compounds is done 2-3 weeks after surgery to establish stable allodynia. In all experimental animals, baseline measurements were taken prior to drug administration and then at 24 hours and 5-23 days post dosing with Alzet osmotic minipump. The investigator was blinded to the identity of the drug groups. The % allodynia reversal is calculated as: [(Postdrug threshold−Predrug threshold)/(15-Predrug threshold)]×100.
Compound B was formulated in 50% DMSO (dimethyl sulfoxide; Sigma, St. Louis, Mo.). This solution was dosed orally TID at a dose of 0.3 or 1 mg/kg. For dosing in the osmotic minipumps (Model 1007D, Alzet Corp., Palo Alto, Calif.) the compound was loaded onto the pumps set to deliver a final dose of either 1 or 3 mg/kg/day. The vehicle for these studies is 50% DMSO.
Compound C was formulated first in 100% DMSO (Sigma, St. Louis, Mo.), then diluted down in 30% DMSO for a 10 mg/ml solution; 15% DMSO for a 3 mg/ml solution and further dilutions were made in water. The compound was dosed orally TID at a dose of either 0.3 or 1 mg/kg for a total daily dose of 1 or 3 mg/kg/day, respectively.

[3] = 1 mg/kg/day osmotic minipump for 7 days + 3 mg/kg FK506 BID SC for 5 days
[4] = 1 mg/kg/day osmotic minipump, treatment for 7 days
[5] = 1 mg/kg/day TID oral for 5 days + 3 mg/kg FK506 BID SC for 5 days, mean % MPE ± SEM
[6] = 1 mg/kg/day TID oral for 5 days, mean % MPE ± SEM

Row | Compound | recipient tear level of IL-17 [1] | recipient tear level of TNFα [1] | % Allodynia Reversal 24 hr post [2, 3] [%] | % Allodynia Reversal 7 day post [2, 3] [%] | % Allodynia Reversal 24 hr post [2, 4] [%] | % Allodynia Reversal 7 day post [2, 4] [%] | blockade of the (long-term) analgesic effect by the immunosuppressant FK506 [2] | % Allodynia Reversal 24 hr post [2, 5] [%] | % Allodynia Reversal 23 day post [2, 5] [%] | % Allodynia Reversal 24 hr post [2, 6] [%] | % Allodynia Reversal 23 day post [2, 6] [%]
1 | CCC1=CC(Cc2c[nH]cn2)CCC1 (stereo not drawn) [Compound B] | significantly reduced | significantly reduced | 57.06 ± 14.52 | 16.43 ± 19.42 | 78.50 ± 7.85 | 73.35 ± 11.95 | blockable | – | – | – | –
2 | Clc1cccc(CNC2=NCCN2)c1Cl [Compound C] | – | – | – | – | – | – | able to block | 49 ± 13.15 | 21.82 ± 4.26 | 66.06 ± 10.71 | 81.48 ± 6.00
